Data published in PubChem BioAssay (NCI).
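The compound was tested at five concentrations on cells cultured in 96-well plates, with a 48-hour exposure period. The concentration for full growth arrest is given as TGI.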

How the values were obtained:
Assay in all cases: DTP human tumour cell line panel, 48 h
MALME-3M melanoma = tested on: MALME-3M melanoma
786-0 renal = tested on: 786-0 renal
U251 CNS = tested on: U251 CNS
MDA-MB-231 breast = tested on: MDA-MB-231 breast
COLO 205 colon = tested on: COLO 205 colon
HS 578T breast = tested on: HS 578T breast
TK-10 renal = tested on: TK-10 renal
HOP-92 NSCLC = tested on: HOP-92 NSCLC
BT-549 breast = tested on: BT-549 breast
SF-268 CNS = tested on: SF-268 CNS
CCRF-CEM leukemia = tested on: CCRF-CEM leukemia
NCI-H460 lung = tested on: NCI-H460 lung
LOX IMVI melanoma = tested on: LOX IMVI melanoma
HT29 colon = tested on: HT29 colon
UACC-62 melanoma = tested on: UACC-62 melanoma
DU-145 prostate = tested on: DU-145 prostate
SK-MEL-2 melanoma = tested on: SK-MEL-2 melanoma
T-47D breast = tested on: T-47D breast
RPMI-8226 leukemia = tested on: RPMI-8226 leukemia
SNB-19 CNS = tested on: SNB-19 CNS
EKVX NSCLC = tested on: EKVX NSCLC
HCC-2998 colon = tested on: HCC-2998 colon
A549 NSCLC = tested on: A549 NSCLC
RXF 393 renal = tested on: RXF 393 renal
SW-620 colon = tested on: SW-620 colon
IGROV1 ovarian = tested on: IGROV1 ovarian
UACC-257 melanoma = tested on: UACC-257 melanoma
SK-MEL-5 melanoma = tested on: SK-MEL-5 melanoma
SN12C renal = tested on: SN12C renal
HOP-62 NSCLC = tested on: HOP-62 NSCLC
SK-MEL-28 melanoma = tested on: SK-MEL-28 melanoma
CAKI-1 renal = tested on: CAKI-1 renal
NCI-H23 lung = tested on: NCI-H23 lung
M14 melanoma = tested on: M14 melanoma
UO-31 renal = tested on: UO-31 renal
OVCAR-5 ovarian = tested on: OVCAR-5 ovarian
K-562 leukemia = tested on: K-562 leukemia
OVCAR-8 ovarian = tested on: OVCAR-8 ovarian
NCI-H226 lung = tested on: NCI-H226 lung
HL-60(TB) leukemia = tested on: HL-60(TB) leukemia
ACHN renal = tested on: ACHN renal
SF-295 CNS = tested on: SF-295 CNS
MCF7 breast = tested on: MCF7 breast
OVCAR-4 ovarian = tested on: OVCAR-4 ovarian
NCI-H522 lung = tested on: NCI-H522 lung
MDA-N = tested on: MDA-N
A498 renal = tested on: A498 renal
HCT-15 colon = tested on: HCT-15 colon
NCI/ADR-RES ovarian = tested on: NCI/ADR-RES ovarian
KM12 colon = tested on: KM12 colon
MDA-MB-435 = tested on: MDA-MB-435
SNB-75 CNS = tested on: SNB-75 CNS
PC-3 prostate = tested on: PC-3 prostate
HCT-116 colon = tested on: HCT-116 colon
SK-OV-3 ovarian = tested on: SK-OV-3 ovarian
MOLT-4 leukemia = tested on: MOLT-4 leukemia
OVCAR-3 ovarian = tested on: OVCAR-3 ovarian
SF-539 CNS = tested on: SF-539 CNS

SMILES: O=C1Nc2cc(Cl)ccc2C(=O)N2CCC[C@@H]12
- TGI (MALME-3M melanoma): > 100 µM
- TGI (786-0 renal): > 100 µM
- TGI (U251 CNS): > 100 µM
- TGI (MDA-MB-231 breast): > 100 µM
- TGI (COLO 205 colon): > 100 µM
- TGI (HS 578T breast): > 100 µM
- TGI (TK-10 renal): > 100 µM
- TGI (HOP-92 NSCLC): > 100 µM
- TGI (BT-549 breast): > 100 µM
- TGI (SF-268 CNS): > 100 µM
- TGI (CCRF-CEM leukemia): > 100 µM
- TGI (NCI-H460 lung): > 100 µM
- TGI (LOX IMVI melanoma): > 100 µM
- TGI (HT29 colon): > 100 µM
- TGI (UACC-62 melanoma): > 100 µM
- TGI (DU-145 prostate): > 100 µM
- TGI (SK-MEL-2 melanoma): > 100 µM
- TGI (T-47D breast): > 100 µM
- TGI (RPMI-8226 leukemia): > 100 µM
- TGI (SNB-19 CNS): > 100 µM
- TGI (EKVX NSCLC): > 100 µM
- TGI (HCC-2998 colon): > 100 µM
- TGI (A549 NSCLC): > 100 µM
- TGI (RXF 393 renal): > 100 µM
- TGI (SW-620 colon): > 100 µM
- TGI (IGROV1 ovarian): > 100 µM
- TGI (UACC-257 melanoma): > 100 µM
- TGI (SK-MEL-5 melanoma): > 100 µM
- TGI (SN12C renal): > 100 µM
- TGI (HOP-62 NSCLC): > 100 µM
- TGI (SK-MEL-28 melanoma): > 100 µM
- TGI (CAKI-1 renal): > 100 µM
- TGI (NCI-H23 lung): > 100 µM
- TGI (M14 melanoma): > 100 µM
- TGI (UO-31 renal): > 100 µM
- TGI (OVCAR-5 ovarian): > 100 µM
- TGI (K-562 leukemia): > 100 µM
- TGI (OVCAR-8 ovarian): > 100 µM
- TGI (NCI-H226 lung): 98.2 µM
- TGI (HL-60(TB) leukemia): > 100 µM
- TGI (ACHN renal): > 100 µM
- TGI (SF-295 CNS): > 100 µM
- TGI (MCF7 breast): > 100 µM
- TGI (OVCAR-4 ovarian): > 100 µM
- TGI (NCI-H522 lung): > 100 µM
- TGI (MDA-N): > 100 µM
- TGI (A498 renal): > 100 µM
- TGI (HCT-15 colon): > 100 µM
- TGI (NCI/ADR-RES ovarian): > 100 µM
- TGI (KM12 colon): > 100 µM
- TGI (MDA-MB-435): > 100 µM
- TGI (SNB-75 CNS): > 100 µM
- TGI (PC-3 prostate): > 100 µM
- TGI (HCT-116 colon): > 100 µM
- TGI (SK-OV-3 ovarian): > 100 µM

SMILES: O=C1c2[nH]c3ccccc3c2CCN2CCCCC12 (stereo unspecified)
- TGI (MALME-3M melanoma): 46.5 µM
- TGI (786-0 renal): 56.9 µM
- TGI (U251 CNS): 38.3 µM
- TGI (MDA-MB-231 breast): 41.3 µM
- TGI (COLO 205 colon): 34.9 µM
- TGI (HS 578T breast): 71.8 µM
- TGI (TK-10 renal): 72.4 µM
- TGI (HOP-92 NSCLC): 41.8 µM
- TGI (BT-549 breast): 65.8 µM
- TGI (SF-268 CNS): 78.9 µM
- TGI (CCRF-CEM leukemia): 57.3 µM
- TGI (NCI-H460 lung): > 100 µM
- TGI (LOX IMVI melanoma): 44.9 µM
- TGI (HT29 colon): > 100 µM
- TGI (UACC-62 melanoma): 37 µM
- TGI (DU-145 prostate): > 100 µM
- TGI (MOLT-4 leukemia): 56.7 µM
- TGI (SK-MEL-2 melanoma): 36.3 µM
- TGI (T-47D breast): 74.9 µM
- TGI (RPMI-8226 leukemia): 42.6 µM
- TGI (SNB-19 CNS): 61.7 µM
- TGI (EKVX NSCLC): 53.7 µM
- TGI (HCC-2998 colon): 33.2 µM
- TGI (A549 NSCLC): 76.3 µM
- TGI (RXF 393 renal): 61.2 µM
- TGI (SW-620 colon): 65.9 µM
- TGI (IGROV1 ovarian): 56 µM
- TGI (UACC-257 melanoma): 39.5 µM
- TGI (SN12C renal): > 100 µM
- TGI (HOP-62 NSCLC): > 100 µM
- TGI (SK-MEL-28 melanoma): > 100 µM
- TGI (CAKI-1 renal): > 100 µM
- TGI (NCI-H23 lung): 63.7 µM
- TGI (OVCAR-3 ovarian): 37.1 µM
- TGI (M14 melanoma): 35.3 µM
- TGI (OVCAR-5 ovarian): 44.1 µM
- TGI (K-562 leukemia): 95.3 µM
- TGI (OVCAR-8 ovarian): 65.9 µM
- TGI (NCI-H226 lung): 48.8 µM
- TGI (HL-60(TB) leukemia): 13.3 µM
- TGI (ACHN renal): 46 µM
- TGI (SF-295 CNS): 90.2 µM
- TGI (MCF7 breast): > 100 µM
- TGI (OVCAR-4 ovarian): 96.5 µM
- TGI (NCI-H522 lung): 39.8 µM
- TGI (MDA-N): 39.6 µM
- TGI (A498 renal): 78.3 µM
- TGI (HCT-15 colon): > 100 µM
- TGI (NCI/ADR-RES ovarian): 59 µM
- TGI (KM12 colon): 32.4 µM
- TGI (MDA-MB-435): 31 µM
- TGI (SF-539 CNS): 40.2 µM
- TGI (SNB-75 CNS): 73.5 µM
- TGI (PC-3 prostate): 35.7 µM
- TGI (HCT-116 colon): 54.6 µM
- TGI (SK-OV-3 ovarian): > 100 µM
